Test results from patent publication US20160038526A1, “TREATMENT OF PROSTATE CANCER” (THOMAS JEFFERSON UNIVERSITY, priority 2012, published 2016).
Entries after “also recorded” stand apart in the source; their conditions may differ.

Assays:
[1] = system: CWR22Rv1 cells; assay: Cell viability, MTS metabolic activity assay, CWR22Rv1; assay type: cell-based, human; conditions: CWR22Rv1, 72 h
Procedure: (§1) CWR22Rv1 prostate cancer cells were treated with N6BAP or the control compound C5 (Ctrl) at 25 μM concentration or vehicle for 24 h. Following trypan blue exclusion, the attached viable vs. de-attached dead cells were counted. […] The bars indicate mean±SD of triplicate wells. In another assay, CWR22Rv1, LNCaP and DU145 cells were treated with N6BAP, the control compound C5 (Ctrl) or vehicle at indicated concentrations. The fraction of alive cells was determined by MTS ([…]) metabolic activity assay (CellTiter 96® AQueous Assay kit). The results are shown in FIGS. 9C, 9D and 9E, respectively.

[2] = system: DU145 cells; assay: Cell viability, MTS metabolic activity assay, DU145; assay type: cell-based, human; conditions: DU145, 72 hours
Procedure: as §1

[3] = system: CWR22Rv1 cells; assay: Nucleosomal DNA fragmentation (nucleosomal ELISA) in CWR22Rv1 cells; assay type: cell-based, human; conditions: 24 μM N6BAP
[4] = system: COS-7 (monkey kidney); assay: Cell viability assay, COS-7; assay type: cell-based
Procedure: as §1
(§2) The procedure of Example 9 was followed, substituting cells of the following solid tumor cell lines for the cells treated in Example 9: A549 human lung cancer cells, CAPAN human pancreatic cancer cells, T47D human breast cancer cells, […], A2058 human melanoma and COS-7 monkey fibroblast cell lines.

[5] = system: HCT116 human liver cancer cells; assay: Cell viability assay, HCT116; assay type: cell-based
Procedure: as §1, §2

[6] = system: human clinical prostate cancer explants; assay: Clinical prostate cancers ex vivo in explant organ cultures: viability of epithelium; assay type: cell-based; conditions: eight patients, 7 days, N6BAP 5, 10, 25, 50 and 100 μM
Text: For organ cultures, prostate cancer specimens were obtained during surgery from eight patients with localized or locally advanced prostate cancer undergoing radical prostatectomy and bilateral iliac lymphadenectomy. The specimens are identified in Table 1.
The specimens comprised de-identified excess tissue obtained after the completion of pathology diagnosis. A zero-sample prior to organ culture was formalin-fixed for each individual prostate cancer for the analysis of the nuclear Stat5a/b status. The prostate organ cultures were performed as described earlier (Ahonen et al., Endocrinology (2002), 143:228-238). Briefly, prostate cancer tissue was cut into approximately 1 mm^3 pieces in a plain culture medium and transferred onto lens papers lying on stainless steel grids in petri dishes. […] Tissue explants were cultured in a medium containing the N6BAP or control compound C5 at indicated concentrations (C5: […]; N6BAP: 5, 10, 25, 50 and 100 μM) 7 days, after which the explants were fixed in formalin and analyzed for Stat5a/b activation and viability of prostate cancer epithelial compartment. Viability of the epithelial cells in the prostate cancer explants at the end of the cultures were scored by counting the viable epithelial cells per explant.

[7] = molecular target: T1, Stat5a (Homo sapiens, UniProt P42229); assay: Stat5a transcriptional activity, β-casein promoter luciferase reporter gene assay in PC-3 cells; assay type: cell-based; set-up: expressed in transfected cells; host or cells: PC-3 (human prostate cancer cell line); conditions: 1 hour pretreatment, 10 nM hPrl for 16 hours
T1 sequence (P42229 1-794): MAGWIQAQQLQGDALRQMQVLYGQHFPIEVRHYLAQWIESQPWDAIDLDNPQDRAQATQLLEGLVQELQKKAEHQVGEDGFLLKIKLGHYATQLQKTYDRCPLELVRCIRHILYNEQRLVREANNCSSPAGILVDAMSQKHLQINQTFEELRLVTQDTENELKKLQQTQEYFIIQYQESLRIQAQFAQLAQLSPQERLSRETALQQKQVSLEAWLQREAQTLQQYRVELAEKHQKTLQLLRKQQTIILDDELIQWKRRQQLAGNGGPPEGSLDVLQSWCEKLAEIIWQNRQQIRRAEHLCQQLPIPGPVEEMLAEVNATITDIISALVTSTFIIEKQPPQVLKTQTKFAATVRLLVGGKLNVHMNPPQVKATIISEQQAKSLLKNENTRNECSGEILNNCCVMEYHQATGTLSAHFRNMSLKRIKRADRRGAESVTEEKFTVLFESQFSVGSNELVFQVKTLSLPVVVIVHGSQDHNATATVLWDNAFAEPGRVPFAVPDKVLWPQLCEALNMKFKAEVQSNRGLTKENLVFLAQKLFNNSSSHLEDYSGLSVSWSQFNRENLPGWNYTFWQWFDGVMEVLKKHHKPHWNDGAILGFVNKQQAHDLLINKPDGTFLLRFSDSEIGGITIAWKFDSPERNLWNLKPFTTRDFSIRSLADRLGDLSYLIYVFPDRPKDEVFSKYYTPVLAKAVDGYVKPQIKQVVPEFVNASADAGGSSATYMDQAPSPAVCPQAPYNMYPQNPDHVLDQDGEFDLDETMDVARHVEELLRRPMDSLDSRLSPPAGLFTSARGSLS
Procedure: Cells of the human prostate cell line PC-3 were plated into 96-well plate at the density of 2×10^5 per well. After 24 hours of plating, cells were transiently co-transfected using FuGENE6 (Roche) with 0.25 μg of each of pStat5a or pStat5b, pPrlR (prolactin receptor) plasmids, 0.5 μg of pBeta-casein-luc and 0.025 μg of pRL-TK (Renilla luciferase) plasmids as an internal control. After another 24 hours of transfection, the cells were starved in serum-free medium for 8 hours, pretreated with N^6-benzyladenosine-5′-monophosphate (“N6BAP”), or one of five control compounds (designated “C3” through “C7”) of similar molecular weight but unrelated chemical structure to N6BAP), for 1 hour, and then stimulated with 10 nM human prolactin (hPrl) in the serum-free medium for additional 16 hours. The lysates were assayed for firefly and Renilla luciferase activities using the Dual-Luciferase reporter assay system (Promega). Three independent experiments were carried out in triplicate. The firefly luciferase activity was normalized to the Renilla luciferase activity of the same sample, and the mean was calculated from the parallels. From the mean values of each independent run, the overall mean and its standard deviation (S.D.) were calculated.

With `O=P(O)(O)OC[C@H]1O[C@@H](n2cnc3c(NCc4ccccc4)ncnc32)[C@H](O)[C@@H]1O` [N6BAP, N^6-benzyladenosine-5′-monophosphate] the “number of viable cells” value [1] was “decreases the number of viable cells”, the “number of viable cells” value [2] was “decreases the number of viable cells” and the “DNA fragmentation (apoptosis)” value [3] was “N6BAP-induced DNA fragmentation”. For the same compound, the cell viability [4] was “did not affect the viability”, the cell viability [5] was “did not affect the viability” and the “viability of prostate cancer epithelium in explant organ cultures” value [6] was “induced extensive death of prostate cancer epithelium”. For the same compound, the “transcriptional activity of Stat5a on the β-casein gene promoter” value [7] was “inhibited Stat5a and Stat5b transcriptional activity in a concentration-dependent manner; also recorded: effectively blocks the transcriptional activity”.
